Holding throughout (format): in vivo
In test [1] the test system is Blattella germanica (cockroach nymphs). The test is described as follows: insecticidal mortality test, residual, plastic pot. Conditions: 72 h, read-out: grading of mortality, BG. Put shortly:
(§1)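 Mortality grades: A 80–100%, B 50–79%, C <50%, scored usually 1 to 3 days post-treatment. Test liquids held 500, 250 or 100 ppm by weight, prepared from acetone solution diluted into water with 0.01% wetting agent.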

Test [2] relates to Blattella germanica (adult males). The experiment in a line: Blattella germanica knockdown test. Conditions: tests 1 and 2 are repeats; for pest or weed control at 250 ppm: topical, 10 min, Tetramethrin: mean of 27 observations, read-out: % KNOCKDOWN OBSERVED 10 min. Put shortly: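 Adult male German cockroaches, 10 per pot, sprayed in a Potter tower with 250 ppm compound in acetone/kerosene. Knockdown scored every 5 min to 20 min (sometimes 1–4 min, giving KT50/KT90); mortality after 48 h at 25°C, 65% RH; tests repeated.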

The next test relates to Myzus persicae (aphids). The experiment in a line: insecticidal mortality test, contact, Chinese Cabbage leaf. The settings on record: 72 h, read-out: grading of mortality, MP. Summed up: as §1
Test [3] concerns Diabrotica balteata (rootworm larvae). The experiment in a line: insecticidal mortality test, residual, filter paper/maize seed. Conditions: 72 h, read-out: grading of mortality, DB. Put shortly: as §1
For a further test, the system named is Nilaparvata lugens. The test is described as follows: insecticidal mortality test, Nephotettix cincticeps replaced by Nilaparvata lugens. The settings on record: 72 h, read-out: grading of mortality, NC with Nilaparvata lugens. The protocol:
The activity of the Product was determined using a variety of insect pests. The Product was used in the form of liquid preparations containing 500, 250 or 100 parts per million (ppm) by weight of the Product. The preparations were made by dissolving the Product in acetone and diluting the solutions with water containing 0.01% by weight of a wetting agent sold under the trade name "LlSSAPOL" NX until the liquid preparations contained the required concentration of the Product. "Lissapol" is a Registered Trade Mark.
The test procedure adopted with regard to each pest was basically the same and comprised supporting a number of the pests on a medium which was usually a host plant or a foodstuff on which the pests feed, and treating either or both the pests and the medium with the preparations. The mortality of the pests was then assessed at periods usually varying from one to three days after the treatment.
The results of the tests are given in Table III for each of the Products, at the rate in parts per million given in the second column as a grading of mortality designated as A, B or C wherein A indicates 80-100% mortality, B indicates 50-79% mortality and C indicates less than 50% mortality.
In Table 111 the pest organism used is designated by a letter code and the pests species, the support medium or food, and the type and duration of test is given in Table II.

The test system of test [4] is Musca domestica (houseflies - adults). The experiment in a line: insecticidal mortality test, contact, cotton wool/sugar. Conditions: 24 h, read-out: grading of mortality, MD. Put shortly: as §1
The test system of test [5] is Tetranychus urticae (spider mites - adult). The experiment in a line: insecticidal mortality test, contact, French bean leaf. The settings on record: Tetranychus urticae, 72 h; for mortality at 100 ppm: read-out: grading of mortality, Tua, 100 ppm, 3 days. Summed up:
as §1

Test [6] relates to Heliothis virescens (tobacco budworm - larvae). The experiment in a line: insecticidal mortality test, residual, cotton leaf. Conditions: 72 h, read-out: grading of mortality, HV. Summed up: as §1
Test [7] deals with Spodoptera exigua (lesser army worm - larvae). The experiment in a line: insecticidal mortality test, residual, cotton leaf. Conditions: 72 h, read-out: grading of mortality, SP. Put shortly: as §1
Test [8] concerns Musca domestica (adult females). The test is described as follows: Musca domestica knockdown test. Conditions: 1 cm3 of 30 ppm solution in acetone, Kearns and March chamber, 20 adult females, observed over 10 minutes; average of 2 replicates (* single replicate, ** average of 7 tests). The protocol:
1 cm³ Of a 30 ppm solution of the test chemical in acetone was sprayed into a Kearns and March chamber containing 20 Musca domestica (adult females). Knockdown was observed over a period of 10 minutes and KT₅₀ and KT₉₀ values (the time taken for 50% and 90% of the insects to be knocked down) were calculated from the observations. The results given in Table V represent average KT values of 2 replicates except where otherwise stated.

The mark [9] stands for this setting: Blattella germanica, 250 ppm in kerosene, 1 cm3 sprayed onto 10 adult males.
Setting [10] is: Nilaparvata lugens, in Oryza sativa.
The mark [11] stands for this setting: 100 ppm, residual, cotton leaf, 3 days.

Values joined by “and” are separate entries in the source; they are usually repeats but may differ in a detail not shown here. Equal entries are not always repeated. Where two headings read alike, the source gives them in different places.

As usually defined, the mortality is the share of the test organisms that died.

Take `CC1(C)C(C=C(Cl)C(F)(F)F)C1C(=O)OCc1c(F)c(F)c(CF)c(F)c1F` (racemic) [Product II, 4-(Fluoromethyl)-2,3,5,6-tetrafluorobenzyl (1RS,cis)-3-(Z-2-chloro-3,3,3-trifluoroprop-1-en-1-yl)-2,2-dimethyl-cyclopropanecarboxylate]: the mortality at 100 ppm was 80 to 100% in test [1]; 80 to 100% in the test with Myzus persicae (aphids); 80 to 100% in test [3]; 80 to 100% in the test with Nilaparvata lugens (setting [10]); 80 to 100% in test [4]; less than 50% in [5]. For the same compound, the mortality at 100 ppm in test [6] (setting [11]) and in test [7] was 80 to 100% in each case. The “% KNOCKDOWN OBSERVED 15 min” value in test [2] (250 ppm in kerosene, 1 cm3 sprayed onto 10 adult males, 15 min) is 90% and 100%. Further, the “% KNOCKDOWN OBSERVED 20 min” value in test [2] (250 ppm in kerosene, 1 cm3 sprayed onto 10 adult males, 20 min) is on record as 90%. Further, the pest or weed control at 250 ppm in test [2] (setting [9]) worked out at 60%. In [8], the KT₅₀ amounted to 2.7 min. The same compound gave a KT₉₀ in [8] of 5.0 min.

As for `C#Cc1c(F)c(F)c(COC(=O)C2C(C=C(Cl)C(F)(F)F)C2(C)C)c(F)c1F` (racemic) [Product XVI, 4-Ethynyl-2,3,5,6-tetrafluorobenzyl (1RS, cis)-3-(Z-2-chloro-3,3,3-trifluoroprop-1-en-1-yl)-2,2-dimethylcyclopropanecarboxylate], the mortality at 100 ppm lay within 80 to 100% in [1]; 80 to 100% in the test on Myzus persicae (aphids); 80 to 100% in [3]; 80 to 100% with Nilaparvata lugens (setting [10]); 80 to 100% in test [4]; 50 to 79% in test [5]. For the same compound, the mortality at 100 ppm in [6] (setting [11]) and in test [7] was 80 to 100% throughout. Also, the mortality at 250 ppm in [2] (Blattella germanica, 48 h, 250 ppm spray, insects held at 25°C and 65% relative humidity for 48 hours, read-out: % MORTALITY 48 hrs) is 100%. In addition, the pest or weed control at 250 ppm in test [2] (setting [9]) came to 100%. Also, in [8], the KT₅₀ is recorded as 4.6* mins. Moreover, in test [8], the KT₉₀ was 7.0* mins.

Take `CC(C)=NNc1c(F)c(F)c(COC(=O)[C@@H]2[C@H](/C=C(\Cl)C(F)(F)F)C2(C)C)c(F)c1F` (relative stereo) [Product XIII, 4-(prop-2-ylidenehydrazino)-2,3,5,6-tetrafluorobenzyl (1RS, cis)-3-(Z-2-chloro-3,3,3-trifluoroprop-1-en-1-yl)-2,2-dimethylcyclopropanecarboxylate]: the mortality at 100 ppm is 80 to 100% in test [1]; 50 to 79% in the test with Myzus persicae (aphids); 80 to 100% in test [3]; 80 to 100% in the test with Nilaparvata lugens (setting [10]); 80 to 100% in test [4]; less than 50% in [5]. In addition, in test [6], the mortality at 100 ppm fell in the range of 80 to 100%.

Consider `CC(C)=NNc1c(F)c(F)c(COC(=O)[C@@H]2[C@H](C=C(Cl)Cl)C2(C)C)c(F)c1F` (relative stereo) [Product XV, 4-(prop-2-ylidenehydrazino)-2,3,5,6-tetrafluorobenzyl (1RS, cis)-3-(2,2-dichloroethenyl)-2,2-dimethyl-cyclopropanecarboxylate], for which the mortality at 500 ppm (in test [1]; in the test on Myzus persicae (aphids); in test [3]; with Nilaparvata lugens (setting [10]); in test [4]; in test [6]) was 80 to 100% each time.

As to `C#Cc1c(F)c(F)c(COC(=O)C2C(C)(C)C2(C)C)c(F)c1F` [Product XVII, 4-Ethynyl-2,3,5,6-tetrafluorobenzyl-2,2,3,3-tetramethylcyclopropanecarboxylate], the mortality at 500 ppm was 80 to 100% in test [1] (500 ppm, residual, plastic pot, 3 days); less than 50% in the test on Myzus persicae (aphids) (500 ppm, contact, Chinese Cabbage leaf, 3 days); less than 50% in test [3] (500 ppm, residual, filter paper/maize seed, 3 days); 80 to 100% in the test on Nilaparvata lugens (500 ppm, footnote *: Nephotettix cincticeps replaced by Nilaparvata lugens, otherwise as NC test (contact, rice plant, 3 days)); 80 to 100% in test [4] (500 ppm, contact, cotton wool/sugar, 1 day); 80 to 100% in test [5] (500 ppm, 3 days, read-out: grading of mortality, Tua). Further, the mortality at 500 ppm in test [6] was in the range of 80 to 100%; in test [7] (500 ppm, residual, cotton leaf, 3 days), 80 to 100%. The same compound showed a KT₅₀ in [8] of 4.1 min. Moreover, the KT₉₀ in [8] amounted to 7.5 min.

Values taken from patent EP0302626A2, “Insecticidal compounds” (IMPERIAL CHEMICAL INDUSTRIES PLC, priority 1987, dated 1989).
